Results reported in patent publication US7935722B2 (Eli Lilly and Company, priority 2005, dated 2011).

Legend:
[1] = target: T1, human androgen receptor (AR) (Homo sapiens, UniProt P10275); test: C2C12 AR/ARE reporter assay; format: cell-based; conditions: for Emax: C2C12, read-out: C2C12 % Efficacy
T1 construct: expressed in transfected cells; host or cells: mouse myoblast C2C12 cells, transiently co-transfected
T1 sequence (P10275 1-920): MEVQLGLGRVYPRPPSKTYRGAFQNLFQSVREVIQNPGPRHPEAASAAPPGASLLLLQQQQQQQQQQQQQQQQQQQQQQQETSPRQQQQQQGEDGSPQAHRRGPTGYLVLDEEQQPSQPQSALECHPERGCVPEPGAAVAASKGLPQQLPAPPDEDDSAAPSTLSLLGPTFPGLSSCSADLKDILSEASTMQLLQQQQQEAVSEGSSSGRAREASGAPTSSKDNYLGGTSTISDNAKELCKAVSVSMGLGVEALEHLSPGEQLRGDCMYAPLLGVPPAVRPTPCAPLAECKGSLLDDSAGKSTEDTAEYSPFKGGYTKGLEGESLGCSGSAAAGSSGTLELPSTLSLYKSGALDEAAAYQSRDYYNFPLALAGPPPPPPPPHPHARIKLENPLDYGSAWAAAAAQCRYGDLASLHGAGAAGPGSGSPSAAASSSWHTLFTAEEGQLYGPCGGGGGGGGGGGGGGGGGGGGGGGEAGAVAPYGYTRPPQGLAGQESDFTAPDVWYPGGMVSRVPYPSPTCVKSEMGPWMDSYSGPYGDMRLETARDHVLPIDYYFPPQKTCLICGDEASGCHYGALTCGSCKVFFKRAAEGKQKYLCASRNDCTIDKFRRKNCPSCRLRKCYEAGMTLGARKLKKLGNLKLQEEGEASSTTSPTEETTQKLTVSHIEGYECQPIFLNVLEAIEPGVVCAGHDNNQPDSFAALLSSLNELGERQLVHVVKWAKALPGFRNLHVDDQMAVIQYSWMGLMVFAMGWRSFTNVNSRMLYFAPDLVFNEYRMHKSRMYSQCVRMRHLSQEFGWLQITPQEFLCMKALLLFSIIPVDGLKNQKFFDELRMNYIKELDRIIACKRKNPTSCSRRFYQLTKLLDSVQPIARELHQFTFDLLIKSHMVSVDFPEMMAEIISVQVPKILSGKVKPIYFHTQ
Procedure, shortened: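 Mouse C2C12 myoblasts co-transfected with AR/ARE reporter were plated in charcoal-stripped serum and treated for 48 h with compound from about 0.01 nM to 10 μM. Luciferase activity gave EC50 by 4-parameter logistic fit. Efficacy is expressed as % of maximal stimulation by 10 nM methyltrienolone.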

[2] = target: T2, human AR (androgen receptor) (Homo sapiens, UniProt P10275); test: Steroid hormone nuclear receptor binding assay, AR binding
T2 construct: expressed in transfected cells; host or cells: 293 cells (293-AR lysate)
T2 sequence (P10275 1-920): T1 sequence (P10275 1-920)
Procedure, shortened: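 Competition binding with lysates of 293 cells overexpressing human AR, [3H]-methyltrienolone tracer, compounds from about 0.01 nM to 10 μM, overnight at 4 °C; non-specific binding set with 500 nM methyltrienolone. Bound tracer counted by scintillation after charcoal-dextran separation; IC50 converted to Ki by Cheng-Prusoff using Kd from saturation binding.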

Row | SMILES | melting point [°C] | EC50 [1] [nM] | Emax [1] [%] | Ki [2] [nM]
1 | CC(C)C(=O)NC1CCc2c(c3cc(C#N)ccc3n2Cc2ccccc2OC(F)(F)F)C1 (stereo not shown) [Example 100, N-[6-Cyano-9-(2-trifluoromethoxy-benzyl)-2,3,4,9-tetrahydro-1H-carbazol-3-yl]-isobutyramide] | 224 to 225 | 126 | 87.6 | 8
2 | COc1ccc(Cn2c3c(c4cc(Cl)ccc42)CC(NC(=O)C(C)C)CC3)cc1 (stereo not shown) [Example 27] | 182 to 184 | – | 23.2 | 45.8
3 | CC(C)C(=O)NC1CCc2c(c3cc(Cl)ccc3n2Cc2cccc(Cl)c2)C1 (stereo not shown) [Example 22] | 187 to 189 | 75.7 | 74.7 | 3.5
4 | CC(C)C(=O)NC1CCc2c(c3cc(F)ccc3n2Cc2ccc(C#N)cc2)C1 (stereo not shown) [Example 14] | 181 to 184 | 927 | 36.4 | 81.4
5 | CC(C)C(=O)NC1CCc2c(c3cc(Br)ccc3n2Cc2ccc(F)cc2)C1 (stereo not shown) [Example 39] | 165 to 170 | 28.9 | 76.1 | 5.3
6 | CC(C)C(=O)NC1CCc2c(c3cc(-c4nnc(N)s4)ccc3n2Cc2cccc(F)c2)C1 (stereo not shown) [Example 125, N-[6-(5-Amino[1,3,4]thiadiazol-2-yl)-9-(3-fluorobenzyl)-2,3,4,9-tetrahydro-1H-carbazol-3-yl]isobutyramide] | 251 to 254 | 68.5 | 75.8 | 55.1
7 | CC(C)C(=O)NC1CCc2c(c3ccccc3n2Cc2ccccc2)C1 (stereo not shown) [Example 2] | 191 to 193 | 313 | 59.4 | 17.7
8 | COc1ccc(Cn2c3c(c4cc(F)ccc42)CC(NC(=O)C(C)C)CC3)cc1 (stereo not shown) [Example 15] | 178 to 181 | – | 15.3 | 275
9 | CC(C)C(=O)NC1CCc2c(c3cc(Cl)ccc3n2Cc2ccc(Cl)cc2)C1 (stereo not shown) [Example 26] | 176 to 178 | 301 | 33 | 16.6
10 | Cc1ccc2c(c1)c1c(n2Cc2ccccc2Cl)CCC(NC(=O)C(C)C)C1 (stereo not shown) [Example 44] | 194 | 305 | 71.1 | 94.2
11 | CC(C)C(=O)NC1CCc2c(c3cc(C(F)(F)F)ccc3n2Cc2cccc(F)c2)C1 (stereo not shown) [Example 55] | 131 to 138 | 2.5 | 82.9 | 11.2
12 | Cc1ccc2c(c1)c1c(n2Cc2ccccc2C#N)CCC(NC(=O)C(C)C)C1 (stereo not shown) [Example 46] | 218 to 220 | – | 40.5 | 137
13 | CC(C)C(=O)NC1CCc2c(c3cc(F)ccc3n2Cc2cccc(Cl)c2)C1 (stereo not shown) [Example 9] | 177 to 179 | 113 | 62.3 | 7.2
14 | COc1ccc(Cn2c3c(c4cc(Br)ccc42)CC(NC(=O)C(C)C)CC3)cc1 (stereo not shown) [Example 41] | 120 to 125 | 1820 | 46.6 | 43.2
15 | CC(C)C(=O)NC1CCc2c(c3cc4c(cc3n2Cc2cccc(F)c2)OCO4)C1 (stereo not shown) [Example 98, N-[9-(3-Fluoro-benzyl)-6,7,8,9-tetrahydro-5H-1,3-dioxa-9-aza-cyclopenta[b]fluoren-6-yl]-isobutyramide] | 250 to 255 | 40.8 | 104 | 7
16 | CO/N=C/c1ccc2c(c1)c1c(n2Cc2ccccn2)CC[C@@H](NC(=O)C2CC2)C1 [Example 208, (R)-Cyclopropanecarboxylic acid[6-(1-methoxyimino-methyl)-9-pyridin-2-ylmethyl-2,3,4,9-tetrahydro-1H-carbazol-3-yl]-amide] | 215 to 217 | 3.8 | 96.3 | 21.1
17 | CC(C)C(=O)NC1CCc2c(c3cccc(Cl)c3n2Cc2cccc(F)c2)C1 (stereo not shown) [Example 57] | 205 to 207 | 323 | 36.5 | 25.1
18 | CO/N=C/c1ccc2c(c1)c1c(n2Cc2cccc(F)c2)CC[C@@H](NC(=O)C2CC2)C1 [Example 205, (R)-Cyclopropanecarboxylic acid[9-(3-fluoro-benzyl)-6-(1-methoxyimino-methyl)-2,3,4,9-tetrahydro-1H-carbazol-3-yl]-amide] | 200 to 203 | 0.5 | 88.4 | 3
19 | CCOC(=O)c1ccc2c(c1)c1c(n2Cc2cccc(F)c2)CCC(NC(=O)C(C)C)C1 (stereo not shown) [Example 52] | 226 to 228 | 5.6 | 73.2 | 6.1
20 | CC(C)C(=O)NC1CCc2c(c3cc(Cl)ccc3n2Cc2ccccc2F)C1 (stereo not shown) [Example 17] | 190 to 193 | 148 | 62.1 | 8.6
21 | Cc1ccc2c(c1)c1c(n2Cc2ccccc2F)CCC(NC(=O)C(C)C)C1 (stereo not shown) [Example 43] | 174 to 176 | 462 | 69.6 | 104
22 | COC(=O)Nc1ccc2c(c1)c1c(n2Cc2cccc(F)c2)CC[C@@H](NC(=O)C(C)C)C1 [Example 190, (R)-[9-(3-Fluorobenzyl)-6-isobutyrylamino-6,7,8,9-tetrahydro-5H-carbazol-3-yl]-carbamic acid methyl ester] | 111 to 115 | 2.2 | 86 | 6.7
